Results on 25 compounds are retold here after patent US11365199B2, “Pyrazole compounds as modulators of FSHR and uses thereof” (Merck Patent GmbH, priority 2013, dated 2022).

SMILES strings stand for the structures. A value given as a limit tells only on which side of the number the result lay.

The assay deals with T1, FSHR (Homo sapiens, UniProt P23945).
T1 construct: expressed in transfected cells; host or cells: CHO (Cho-FSHR-LUC-1-1-43)
T1 sequence (P23945 18-695): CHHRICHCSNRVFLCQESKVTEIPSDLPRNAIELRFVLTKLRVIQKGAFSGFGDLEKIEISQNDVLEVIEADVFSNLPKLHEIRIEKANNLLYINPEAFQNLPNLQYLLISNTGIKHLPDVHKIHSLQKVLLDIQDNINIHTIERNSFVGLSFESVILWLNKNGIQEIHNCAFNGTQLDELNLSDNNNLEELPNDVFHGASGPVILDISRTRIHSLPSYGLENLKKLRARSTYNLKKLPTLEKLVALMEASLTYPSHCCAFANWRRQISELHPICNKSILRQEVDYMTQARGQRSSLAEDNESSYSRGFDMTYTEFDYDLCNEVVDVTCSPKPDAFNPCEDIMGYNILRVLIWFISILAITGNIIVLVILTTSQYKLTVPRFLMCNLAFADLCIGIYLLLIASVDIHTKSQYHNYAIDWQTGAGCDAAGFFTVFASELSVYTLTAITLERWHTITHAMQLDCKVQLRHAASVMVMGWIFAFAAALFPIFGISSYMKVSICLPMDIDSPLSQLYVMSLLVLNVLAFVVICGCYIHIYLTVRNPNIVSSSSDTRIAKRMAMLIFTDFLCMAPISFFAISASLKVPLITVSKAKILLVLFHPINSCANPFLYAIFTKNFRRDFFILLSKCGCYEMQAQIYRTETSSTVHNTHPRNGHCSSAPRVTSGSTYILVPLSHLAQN
The assay is described as follows: EC50 of cyclic AMP production in CHO FSHR cells + EC20 FSH (Assay A). Format: cell-based. The note with it: CHO FSHR cells + EC20 FSH, cAMP HTRF; read-out: Assay A: EC50 of cyclic AMP production. How it is done:
EC50 of Cyclic AMP Production in CHO FSHR Cells+EC20 FSH (Assay A)
2500 Cho-FSHR-LUC-1-1-43 cells were plated per well in 5 μl of phenol red free DMEM/F12+1% FBS. Cells were plated in 384 well, solid white low volume plates (Greiner 784075) by Multidrop. Cells were assayed by adding 100 μl of 2×EC20 FSH/IBMX in DMEM/F12+0.1% BSA) by Multidrop to 2 μl of test compound stamped in 384 well plates (compounds are diluted 1:50). The final FSH concentration was […], and the final IBMX concentration was 200 μM. The compound plate map was as follows: Column 1: 2 μl of DMSO; Column 2: 2 μl of DMSO; Columns 3-12 and 13-24: 2 μl of test compound, diluted 1:4 in 100% DMSO, or 2 μl of FSH, diluted 1:4 in DMEM/F12+0.1% BSA. The starting concentration for FSH was 50 nM (final concentration was 0.5 nM). Furthermore, Column 23 contained 2 μl of EC100 FSH reference (100×) (diluted in DMEM/F12+0.1% BSA) at a final concentration of 0.5 nM, and Column 24 contained 2 μl of 1 mM AS707664/2 reference compound 2. 5 μl of compound+EC20 FSH mixture were transferred to cell plates (1:2 dilution into 5 μl of cell media) The plates were incubated at 37° C. for 1 h. 10 μl of mixed HTRF (CisBio #62AM4PEC) reagents were added per well and incubated at room temperature for 1 h. The plates were read on Envision using the cAMP HTRF—low volume 384 well protocol. The readout was the calculated fluorescence ratio (665 nm/620 nm). Values given in percent (%) indicate the percental effect (response) at a certain concentration of agonist relative to the maximum response of the FSH standard.
One may read the EC50 as the concentration giving half of the maximal effect. Turning to `[2H]C([2H])([2H])N(CCN1CCOC1=O)C(=O)c1nn(-c2ccsc2)c2c1COc1cc(OC)c(-c3cn[nH]c3)cc1-2` [Compound 85], the EC50 is below 0.1 µM.

`CCCn1nc(C)cc1-c1cc2c(cc1OC)OCc1c(C(=O)N3CCOCC3(C)C)nn(-c3ccsc3)c1-2` [Compound 212, (3,3-Dimethyl-morpholin-4-yl)-[7-methoxy-8-(5-methyl-2-propyl-2H-pyrazol-3-yl)-1-thiophen-3-yl-1,4-dihydro-chromeno[4,3-c]pyrazol-3-yl]-methanone]: the EC50 is below 0.1 µM.

`[2H]C([2H])([2H])O[C@H]1CC[C@H](N(C(=O)c2nn(-c3ccsc3)c3c2COc2cc(OC)c(-c4ccn(C)c4)cc2-3)C([2H])([2H])[2H])C1` [Compound 197]: the EC50 was in the range of 1 to 5 µM.

Take `[2H]C([2H])([2H])NC(=O)[C@H]1CCC[C@@H](N(C(=O)c2nn(-c3ccsc3)c3c2COc2cc(OC)c(C=C(C)C)cc2-3)C([2H])([2H])[2H])C1` [Compound 107]: the EC50 is above 5 µM.

As to `COc1cc2c(cc1-c1cnoc1)-c1c(c(C(=O)N(C)C(C)(C)C)nn1-c1ccsc1)CO2` [Compound 72, 8-Isoxazol-4-yl-7-methoxy-1-thiophen-3-yl-1,4-dihydro-chromeno[4,3-c]pyrazole-3-carboxylic acid tert-butyl-methyl-amide], the EC50 is below 0.1 µM.

For `COc1cc2c(cc1C=C(C)C)-c1c(c(C(=O)N3CCCC3(C)CO)nn1-c1ccsc1)CO2` (stereo not shown) [Compound 48, (2-Hydroxymethyl-2-methyl-pyrrolidin-1-yl)-[7-methoxy-8-(2-methyl-propenyl)-1-thiophen-3-yl-1,4-dihydro-chromeno[4,3-c]pyrazol-3-yl]-methanone], the EC50 is below 0.1 µM.

As for `COc1cc2c(cc1-c1cn[nH]c1)-c1c(c(C(=O)NCCN3CCOC3=O)nn1-c1ccsc1)CO2` [Compound 62, 7-Methoxy-8-(1H-pyrazol-4-yl)-1-thiophen-3-yl-1,4-dihydro-chromeno[4,3-c]pyrazole-3-carboxylic acid [2-(2-oxo-oxazolidin-3-yl)-ethyl]-amide], the 50% effective concentration (EC50) lay in the range of 0.1 to 1 µM.

Regarding `[2H]C([2H])([2H])N(CCN1CCOC1=O)C(=O)c1nn(-c2ccsc2)c2c1COc1cc(OC)c(-c3cnn(C([2H])([2H])[2H])c3)cc1-2` [Compound 78], the EC50 is below 0.1 µM.

As to `COc1cc2c(cc1OC(C)C)-c1c(c(C(=O)N(C)CCN(C)C(=O)C3CCC3)nn1-c1ccsc1)CO2` [Compound 29], the EC50 is below 0.1 µM.

Regarding `[2H]C([2H])([2H])C(C(=O)c1nn(-c2ccsc2)c2c1COc1cc(OC)c(-c3ccn(C)n3)cc1-2)C1(C)CNC1` (stereo not shown) [Compound 193], the EC50 was above 5 µM.

With `[2H]C([2H])([2H])N(C(=O)c1nn(-c2ccsc2)c2c1COc1cc(OC)c(-c3cn(C([2H])([2H])[2H])nc3C)cc1-2)C1CCOC1` (stereo not shown) [Compound 143], the EC50 was 0.1 to 1 µM.

For the compound `COc1cc2c(cc1C=C(C)C)-c1c(c(C(=O)N(C)CCN(C)C(C)=O)nn1-c1ccsc1)CO2` [Compound 34], the concentration giving a half-maximal response (EC50) was below 0.1 µM.

Consider `CCOC(=O)C1CCN(C(=O)c2nn(-c3ccsc3)c3c2COc2cc(OC)c(C=C(C)C)cc2-3)CC1` [Compound 14, 1-{7-Methoxy-8-(2-methyl-propenyl)-1-thiophen-3-yl-1,4-dihydro-chromeno[4,3-c]pyrazole-3-carbonyl]-piperidine-4-carboxylic acid ethyl ester], for which the EC50 lay within 1 to 5 µM.

Turning to `CNC(=O)c1nn(-c2ccsc2)c2c1COc1cc(OC)c(-c3cn[nH]c3)cc1-2` [Compound 22, 7-Methoxy-8-(1H-pyrazol-4-yl)-1-thiophen-3-yl-1,4-dihydro-chromeno[4,3-c]pyrazole-3-carboxylic Acid Methylamide], the EC50 lay in the range of 1 to 5 µM.

Regarding `[2H]C([2H])([2H])N(CCCN(C(=O)c1nn(-c2ccsc2)c2c1COc1cc(OC)c(CC(C)C)cc1-2)C([2H])([2H])[2H])C(C)=O` [Compound 84], the EC50 is above 5 µM.

Consider `COc1cc2c(cc1-c1cnn(CCC#N)c1)-c1c(c(C(=O)N3CCOCC3(C)C)nn1-c1ccsc1)CO2` [Compound 190, 3-{4-[3-(3,3-Dimethyl-morpholine-4-carbonyl)-7-methoxy-1-thiophen-3-yl-1,4-dihydro-chromeno[4,3-c]pyrazol-8-yl]-pyrazol-1-yl}-propionitrile], for which the EC50 is below 0.1 µM.

`COc1cc2c(cc1S(=O)(=O)CC(C)C)-c1c(c(C(=O)N3CCOCC3(C)C)nn1-c1ccsc1)CO2` [Compound 127, (3,3-Dimethyl-morpholin-4-yl)-[7-methoxy-8-(2-methyl-propane-1-sulfonyl)-1-thiophen-3-yl-1,4-dihydro-chromeno[4,3-c]pyrazol-3-yl]-methanone]: the EC50 was above 5 µM.

On to `COc1cc2c(cc1-c1ccn(C)n1)-c1c(c(C(=O)NCC3(O)COC3)nn1-c1ccsc1)CO2` [Compound 165, 7-Methoxy-8-(1-methyl-1H-pyrazol-3-yl)-1-thiophen-3-yl-1,4-dihydro-chromeno[4,3-c]pyrazole-3-carboxylic acid (3-hydroxy-oxetan-3-ylmethyl)-amide], for which the EC50 was above 5 µM.

Consider `COc1cc2c(cc1-c1ccn(C)n1)-c1c(c(C(=O)NC(C)(CO)CO)nn1-c1ccsc1)CO2` [Compound 185, 7-Methoxy-8-(1-methyl-1H-pyrazol-3-yl)-1-thiophen-3-yl-1,4-dihydro-chromeno[4,3-c]pyrazole-3-carboxylic Acid (2-hydroxy-1-hydroxymethyl-1-methyl-ethyl)-amide], for which the EC50 lay in the range of 0.1 to 1 µM.

Regarding `COc1cc2c(cc1C=C(C)C)-c1c(c(C(=O)N(C)C(C)(C)C)nn1-c1nccs1)CO2` [Compound 89, 7-Methoxy-8-(2-methyl-propenyl)-1-thiazol-2-yl-1,4-dihydro-chromeno[4,3-c]pyrazole-3-carboxylic Acid tert-butyl-methyl-amide], the EC50 is below 0.1 µM.

Consider `[2H]C([2H])([2H])N(C(=O)c1nn(-c2ccsc2)c2c1COc1cc(OC)c(-c3ccn(C)n3)cc1-2)C1CCOC1` (stereo not shown) [Compound 140], for which the 50% effective concentration (EC50) is 1 to 5 µM.

In the case of `COc1cc2c(cc1-c1cnn(CCN3CCCC3)c1)-c1c(c(C(=O)N3CCOCC3(C)C)nn1-c1ccsc1)CO2` [Compound 206, (3,3-Dimethyl-morpholin-4-yl)-{7-methoxy-8-[1-(2-pyrrolidin-1-yl-ethyl)-1H-pyrazol-4-yl]-1-thiophen-3-yl-1,4-dihydro-chromeno[4,3-c]pyrazol-3-yl}-methanone], the EC50 lay in the range of 0.1 to 1 µM.

In the case of `COc1cc2c(cc1-c1ccn(C)n1)-c1c(c(C(=O)N3CCN(C(=O)OC(C)(C)C)CC34CC4)nn1-c1ccsc1)CO2` [Compound 158, 4-[7-Methoxy-8-(1-methyl-1H-pyrazol-3-yl)-1-thiophen-3-yl-1,4-dihydro-chromeno[4,3-c]pyrazole-3-carbonyl]-4,7-diaza-spiro[2.5]octane-7-carboxylic acid tert-butyl ester], the EC50 lay within 1 to 5 µM.

Regarding `COc1cc2c(cc1-c1ccn(C(C)C)n1)-c1c(c(C(=O)N3CCOCC3(C)C)nn1-c1ccsc1)CO2` [Compound 195, (3,3-Dimethyl-morpholin-4-yl)-[8-(1-isopropyl-1H-pyrazol-3-yl)-7-methoxy-1-thiophen-3-yl-1,4-dihydro-chromeno[4,3-c]pyrazol-3-yl]-methanone], the concentration for a half-maximal effect (EC50) was below 0.1 µM.

`COc1cc2c(cc1-c1cn(C)nc1C)-c1c(c(C(=O)N3CCOCC3(C)C)nn1-c1ccsc1)CO2` [Compound 123, (3,3-Dimethyl-morpholin-4-yl)-[8-(1,3-dimethyl-1H-pyrazol-4-yl)-7-methoxy-1-thiophen-3-yl-1,4-dihydro-chromeno[4,3-c]pyrazol-3-yl]-methanone]: the EC50 was below 0.1 µM.
